Data reported in ChEMBL document CHEMBL1201862, “PubChem BioAssay data set” (2004).
Activity calls are given as the source filed them. No stated cut-off is given here; in the data, actives have a measured IC50 and inactives only a lower limit.

Target: Envelope glycoprotein gp160 (Human immunodeficiency virus 1, UniProt Q6QLK5)
Assay: cell-free HIV fusion peptide-binding blockers – biochemical, uHTS, fluorescence dequenching, […] (AID 1986)

Envelope glycoprotein gp160, sequence (Q6QLK5 whole entry, the tested form may be a part): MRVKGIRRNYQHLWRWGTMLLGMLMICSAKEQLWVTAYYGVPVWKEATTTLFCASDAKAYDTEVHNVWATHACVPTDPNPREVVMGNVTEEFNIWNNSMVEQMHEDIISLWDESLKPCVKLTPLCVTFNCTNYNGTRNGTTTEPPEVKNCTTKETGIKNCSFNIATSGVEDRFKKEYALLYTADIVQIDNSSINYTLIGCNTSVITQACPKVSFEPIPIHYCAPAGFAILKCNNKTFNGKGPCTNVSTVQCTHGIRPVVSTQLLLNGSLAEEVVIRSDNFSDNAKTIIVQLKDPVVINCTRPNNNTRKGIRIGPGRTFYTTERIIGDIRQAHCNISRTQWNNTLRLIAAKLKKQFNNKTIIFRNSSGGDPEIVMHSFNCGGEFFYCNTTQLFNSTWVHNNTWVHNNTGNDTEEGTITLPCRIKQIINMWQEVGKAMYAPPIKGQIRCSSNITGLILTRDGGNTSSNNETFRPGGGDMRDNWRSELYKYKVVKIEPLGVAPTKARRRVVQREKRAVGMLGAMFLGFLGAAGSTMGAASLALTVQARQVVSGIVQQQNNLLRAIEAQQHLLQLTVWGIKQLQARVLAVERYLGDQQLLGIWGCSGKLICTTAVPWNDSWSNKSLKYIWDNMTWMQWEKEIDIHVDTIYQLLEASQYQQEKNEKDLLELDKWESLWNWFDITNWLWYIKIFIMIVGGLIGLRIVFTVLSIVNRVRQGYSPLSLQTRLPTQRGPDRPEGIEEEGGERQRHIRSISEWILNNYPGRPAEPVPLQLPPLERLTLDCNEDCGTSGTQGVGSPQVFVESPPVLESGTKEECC

**Q.** CCOc1cc(/C=C2\C(=N)N3N=C(S(C)(=O)=O)SC3=NC2=O)ccc1OCCOc1cccc(OC)c1 was tested. Which IC50 did it give?
**A.** 12 µM (active)

**Q.** For COc1cc(/C=C2/SC(=S)N(Cc3ccccc3)C2=O)ccc1OCC(=O)O, which IC50 is on record?
**A.** 17.3 µM (active)

**Q.** For O=[N+]([O-])c1cc([N+](=O)[O-])c2oc(-c3ccccc3)c(Br)c2c1O, which IC50 is on record?
**A.** 8.02 µM (active)
